Where “and” joins values, the source holds several entries; their conditions need not be identical. Identical values can stand only once.
O=C(C(F)(F)C(F)(F)F)C(F)(C(F)(F)F)C(F)(F)F [dodecafluoro-2-methylpentan-3-one]
Conditions | thermal conductivity
344.55 K, 132 kPa, Gas, hot wire | 0.01525 W/m/K
344.55 K, 192 kPa, Gas, transient hot wire | 0.01458 W/m/K
344.56 K, 170 kPa, Gas, transient hot wire | 0.01468 W/m/K
344.56 K, 192 kPa, Gas, transient hot wire | 0.01463 W/m/K
344.57 K, 170 kPa, Gas, transient hot wire | 0.01503 W/m/K
344.6 K, 134 kPa, Gas, transient hot wire | 0.01526 W/m/K and 0.01525 W/m/K
344.61 K, 83 kPa, Gas, hot wire | 0.01485 W/m/K
344.62 K, 83 kPa, Gas, hot wire | 0.0148 W/m/K
344.67 K, 26 kPa, Gas, hot wire | 0.01453 W/m/K
344.68 K, 26 kPa, Gas, hot wire | 0.01449 W/m/K
344.8 K, 192 kPa, Gas, transient hot wire | 0.01479 W/m/K and 0.01481 W/m/K
344.83 K, 170 kPa, Gas, transient hot wire | 0.01525 W/m/K and 0.01449 W/m/K
344.85 K, 134 kPa, Gas, transient hot wire | 0.01542 W/m/K
344.87 K, 134 kPa, Gas, transient hot wire | 0.01544 W/m/K
345.08 K, 191 kPa, Gas, transient hot wire | 0.0149 W/m/K
345.08 K, 192 kPa, Gas, transient hot wire | 0.01491 W/m/K
345.11 K, 169 kPa, Gas, transient hot wire | 0.01531 W/m/K
345.11 K, 170 kPa, Gas, transient hot wire | 0.01528 W/m/K
345.14 K, 134 kPa, Gas, transient hot wire | 0.01546 W/m/K
345.15 K, 133 kPa, Gas, transient hot wire | 0.01547 W/m/K
345.36 K, 191 kPa, Gas, transient hot wire | 0.01503 W/m/K
345.37 K, 191 kPa, Gas, transient hot wire | 0.01504 W/m/K
345.39 K, 169 kPa, Gas, transient hot wire | 0.01534 W/m/K
345.4 K, 169 kPa, Gas, transient hot wire | 0.01485 W/m/K
345.44 K, 133 kPa, Gas, transient hot wire | 0.01551 W/m/K
345.45 K, 133 kPa, Gas, transient hot wire | 0.0155 W/m/K
345.67 K, 191 kPa, Gas, transient hot wire | 0.01515 W/m/K
345.68 K, 191 kPa, Gas, transient hot wire | 0.01514 W/m/K
345.72 K, 169 kPa, Gas, transient hot wire | 0.0154 W/m/K and 0.01511 W/m/K
345.77 K, 132 kPa, Gas, transient hot wire | 0.01531 W/m/K
345.77 K, 133 kPa, Gas, transient hot wire | 0.01548 W/m/K
358.25 K, 257 kPa, Gas, hot wire | 0.01686 W/m/K
358.26 K, 257 kPa, Gas, hot wire | 0.01685 W/m/K
358.3 K, 188 kPa, Gas, hot wire | 0.01631 W/m/K
358.3 K, 189 kPa, Gas, hot wire | 0.01648 W/m/K
358.33 K, 91 kPa, Gas, hot wire | 0.01584 W/m/K
358.34 K, 91 kPa, Gas, hot wire | 0.01584 W/m/K
358.37 K, 26 kPa, Gas, hot wire | 0.01548 W/m/K and 0.01551 W/m/K
358.38 K, 256 kPa, Gas, hot wire | 0.01692 W/m/K
358.38 K, 257 kPa, Gas, hot wire | 0.01694 W/m/K
358.43 K, 187 kPa, Gas, hot wire | 0.01629 W/m/K
358.43 K, 188 kPa, Gas, hot wire | 0.01632 W/m/K
358.47 K, 91 kPa, Gas, hot wire | 0.01587 W/m/K and 0.0159 W/m/K
358.5 K, 26 kPa, Gas, hot wire | 0.01551 W/m/K
358.5 K, 256 kPa, Gas, hot wire | 0.01713 W/m/K
358.51 K, 26 kPa, Gas, hot wire | 0.0155 W/m/K
358.52 K, 256 kPa, Gas, hot wire | 0.0169 W/m/K
358.57 K, 187 kPa, Gas, hot wire | 0.01629 W/m/K and 0.01635 W/m/K
358.62 K, 91 kPa, Gas, hot wire | 0.01584 W/m/K and 0.01592 W/m/K
358.62 K, 255 kPa, Gas, hot wire | 0.01734 W/m/K
358.63 K, 256 kPa, Gas, hot wire | 0.01729 W/m/K
358.65 K, 67979 kPa, Liquid, transient hot wire | 0.07391 W/m/K
358.66 K, 26 kPa, Gas, hot wire | 0.01548 W/m/K and 0.01547 W/m/K
358.66 K, 67960 kPa, Liquid, transient hot wire | 0.07383 W/m/K
358.69 K, 56156 kPa, Liquid, transient hot wire | 0.07064 W/m/K
358.69 K, 56160 kPa, Liquid, transient hot wire | 0.07055 W/m/K
358.71 K, 187 kPa, Gas, hot wire | 0.01648 W/m/K and 0.01644 W/m/K
358.77 K, 92 kPa, Gas, hot wire | 0.01588 W/m/K and 0.01586 W/m/K
358.77 K, 255 kPa, Gas, hot wire | 0.01736 W/m/K
358.77 K, 43866 kPa, Liquid, transient hot wire | 0.06694 W/m/K
358.77 K, 43876 kPa, Liquid, transient hot wire | 0.06686 W/m/K
358.78 K, 255 kPa, Gas, hot wire | 0.01726 W/m/K
358.82 K, 26 kPa, Gas, hot wire | 0.01555 W/m/K and 0.0155 W/m/K
358.82 K, 67912 kPa, Liquid, transient hot wire | 0.07388 W/m/K
358.82 K, 67930 kPa, Liquid, transient hot wire | 0.07402 W/m/K
358.83 K, 33615 kPa, Liquid, transient hot wire | 0.06347 W/m/K
358.84 K, 257 kPa, Gas, transient hot wire | 0.01632 W/m/K
358.84 K, 258 kPa, Gas, transient hot wire | 0.01621 W/m/K
358.84 K, 33614 kPa, Liquid, transient hot wire | 0.06347 W/m/K
358.85 K, 186 kPa, Gas, hot wire | 0.0166 W/m/K and 0.01657 W/m/K
358.85 K, 56137 kPa, Liquid, transient hot wire | 0.07063 W/m/K
358.88 K, 189 kPa, Gas, transient hot wire | 0.01639 W/m/K
358.88 K, 56124 kPa, Liquid, transient hot wire | 0.07064 W/m/K
358.9 K, 188 kPa, Gas, transient hot wire | 0.01635 W/m/K
358.92 K, 24957 kPa, Liquid, transient hot wire | 0.06017 W/m/K
358.92 K, 24958 kPa, Liquid, transient hot wire | 0.06023 W/m/K
358.94 K, 92 kPa, Gas, hot wire | 0.01588 W/m/K
358.95 K, 92 kPa, Gas, hot wire | 0.01588 W/m/K
358.95 K, 43858 kPa, Liquid, transient hot wire | 0.06694 W/m/K
358.95 K, 43862 kPa, Liquid, transient hot wire | 0.06691 W/m/K
358.98 K, 26 kPa, Gas, hot wire | 0.01553 W/m/K
358.99 K, 26 kPa, Gas, hot wire | 0.0155 W/m/K
358.99 K, 67877 kPa, Liquid, transient hot wire | 0.0739 W/m/K
358.99 K, 67897 kPa, Liquid, transient hot wire | 0.07388 W/m/K

Source: the NIST ThermoML archive (doi:10.1021/acs.jced.8b00132)
